From patent US4636569A, “Pharmaceutical compositions containing compounds with a flavanone skeleton, process for the preparation of the said compound and novel compounds obtained” (Inverni Della Beffa S.p.A., priority 1983, dated 1987)
Structures can show the parent of a compound that is named as a salt.

Assays:
[1] = known flavanones of extractive origin; cited from earlier work
[2] = system: bile flow and excretion of cholate; assay: Choleretic activity in rats; format: in vivo; conditions: dose 200 (unit not given); for Bile flow: n=10, controls 2.72 ± 0.11, ** P < 0.01, *** P < 0.001; for Total cholate: n=10, controls 11.64 ± 0.19, ** P < 0.01
From the text: The choleretic activity, compared to that of catechol, has been determined in rats by measuring both the bile flow and the excretion of cholate (cholic acid).

[3] = system: olive oil induced hyperlipaemia; assay: Hypolipaemic activity in rats (olive oil induced hyperlipaemia); format: in vivo; conditions: for Triglycerides / NEFA: n=6, m ± ES; for Triglycerides: controls 252 ± 18; for NEFA: controls 1017 ± 39
Experimental: The hypolipaemia-producing activity was evaluated in other tests in which the variations in cholesterol, triglycerides, NEFA (non-esterified fatty acids) and various lipoprotein fractions were determined.
In Table 3 there is reported the effect of 6,8-dimethyl-5,7,4'-trihydroxyflavanone and of nicotinic acid in combatting olive oil induced hyperlipaemia in rats fasted for 16 hours. The substances under test were administered orally two hours before the lipid load and the hyperlipaemia was induced by administering orally 20 ml/kg of olive oil.
Sacrifice took place three hours after the administration of the oil.

[4] = system: colouring matter excreted in the bronchial liquid; assay: Expectorant activity in mice (Nawatarih fluorescein method); format: in vivo; conditions: for ED50: Mus musculus, mice, oral, read-out: ED50 (dose capable of incrementing the excretion of the colouring matter by 50%)
Experimental: The expectorant activity of the compounds of the invention was evaluated by the method of Nawatarih (Kagoshima Daigaku Igaku Zasshi 27, 561, 1976) with fluorescein, according to which the increment of colouring matter excreted in the bronchial liquid is determined experimentally in mice. In the experiments the activity of 6,8-dimethyl-5,7,3',4'-tetrahydroxyflavanone was evaluated in comparison with that of bromhexine hydrochloride as reference standard. The results, given in Table 1, are expressed in ED50 (dose capable of incrementing the excretion of the colouring matter by 50%).

amount of expectoration = assay: Expectorant activity in the rabbit (Perry and Boyd method); format: in vivo; conditions: Oryctolagus cuniculus, po
Experimental: The expectorant activity has also been monitored by the Perry and Boyd method (J. Pharmacol. Exp. Ther. 7 580, 1941), in which the direct amount of expectoration is determined in the rabbit.

mice = assay: Acute toxicity in mice (oral route); format: in vivo; conditions: no deaths occurred at a dose rate of 3000 mg/kg
From the text: (§1) ACUTE TOXICITY (LD50 in mice (oral route)

[5] = Acute toxicity in mice (oral route); format: in vivo; conditions: mouse, in vivo
From the text: as §1

## Cc1c(O)c(C)c2c(c1O)C(=O)C[C@@H](c1ccc(O)cc1)O2 [farrerol]
[1]
  expectorant and mucolytic activity: display expectorant and mucolytic activity

## O=C1C[C@@H](c2ccc(O)c(O)c2)Oc2cc(O)cc(O)c21 [eriodictyol]
[1]
  expectorant and mucolytic activity: display expectorant and mucolytic activity

## Cc1c(O)c(C)c2c(c1O)C(=O)CC(c1ccc(O)cc1)O2 (stereo not shown) [6,8-Dimethyl-5,7,4'-trihydroxyflavanone, 6,8-dimethyl-5,7,4'-trihydroxyflavanone]
[2]
  Bile flow: 5.25 ± 0.18 ml/4 h
  Total cholate: 15.23 ± 0.97 mg/4 h
[3]; 50 mg/kg os
  Triglycerides: 198 ± 7 mg/100 ml
  NEFA: 702 ± 23 uEq/1
[3]; 50 mg/kg os, vs controls
  NEFA, change (in parentheses): -31

## Cc1c(O)c(C)c2c(c1O)C(=O)CC(c1ccc(O)c(O)c1)O2 (stereo not shown) [6,8-dimethyl-5,7,3',4'-tetrahydroxyflavanone]
[4]
  ED50: 78 mg/kg
[4]; vs bromhexine, from ED50 and acute oral toxicity in mice
  therapeutic index: distinctly more favourable than that of bromhexine
Amount of expectoration
  ED50: 200 mg/kg
mice
  LD0: 3000 mg/kg

## O=C(O)c1cccnc1 [Nicotinic acid, nicotinic acid]
[3]; 173 mg/kg os
  Triglycerides: 71 ± 6 mg/100 ml
  NEFA: 709 ± 33 uEq/1
[3]; 173 mg/kg os, vs controls
  NEFA, change (in parentheses): -30
  Triglycerides, change (in parentheses): -72

## CN(Cc1cc(Br)cc(Br)c1N)C1CCCCC1 [Bromhexine HCl, bromhexine hydrochloride]
[4]
  ED50: 51 mg/kg
[5]
  LD50: 2140 mg/kg

## Oc1ccccc1O [(+) Catechol, catechol]
[2]
  Bile flow: 4.13 ± 0.4 ml/4 h
  Total cholate: 13.03 ± 0.35 mg/4 h
